Source: patent EP0358508A2, “Novel immunosuppressant compound” (MERCK & CO. INC., priority 1988, dated 1990)
“Also recorded” adds a separate entry of the source.

How the values were obtained:
[1] = Physical characteristics: solubility; type: physicochemical; settings: solvent methanol; qualitative
Text: White amorphous powder • 2. […] Molecular weight of 805, as determined by mass spectrometry consistent with a molecular ion at (m/z) 1093.6556 for the tetra-(trimethylsilyl) derivative and characteristic fragment ions at (m/z) 673 and 481.
White amorphous powder • 2. […] Molecular weight of 805, as determined by mass spectrometry consistent with a molecular ion at (m/z) 1021.6169 for the tri-(trimethylsilyl) derivative and characteristic fragment ions at (m/z) 675 and 483.

[2] = system: mouse T lymphocytes stimulated with the combination of ionomycin plus PMA; test: T-cell proliferation assay (ionomycin plus PMA induced T-cell stimulation, tritiated thymidine uptake); type: cell-based, C57B1/6 mice
Text: The principle of this assay is to measure the proliferation of mouse T lymphocytes stimulated with the combination of ionomycin plus PMA. A positive sample in this assay will inhibit T-cell proliferation, as indicated by reduced tritiated thymidine uptake.
Spleens from C57B1/6 mice were taken under sterile conditions and gently dissociated in ice-cold RPMI 1640 culture medium (GIBCO, Grand Island, N.Y.) supplemented with 10% heat-inactivated fetal calf serum (GIBCO). Cells were pelleted by centrifugation at 1500 rpm for 8 minutes. Contaminating red cells were removed by treating the pellet with ammonium chloride lysing buffer (GIBCO) for 2 minutes at 4°C. […]
Purified T lymphocytes were resuspended at 2.5 x 10⁵ cells/ml in complete culture medium composed of RPMI 1640 medium with 10% heat-inactivated fetal calf serum, […] glutamine, 1 mM sodium pyruvate, 2 x 10⁻⁵ M 2-mercaptoethanol and 50 µg/ml gentamycin. […] The proliferation of T lymphocytes was assessed by measurement of tritiated thymidine incorporation. […] Radioactivity of filter discs corresponding to individual wells was measured by standard liquid scintillation counting methods (Beta counter). Mean counts per minute of replicate wells were calculated and the results expressed as percent inhibition of tritiated thymidine uptake (proliferation) as follows: [formula] […]

Solubility [1]: Solubility in methanol
SMILES: CCC[C@@H]1/C=C(\C)C[C@H](C)C[C@H](OC)[C@H]2O[C@@](O)(C(=O)C(=O)N3CCCC[C@H]3C(=O)O[C@H](/C(C)=C/[C@@H]3CC[C@@H](O)[C@H](OC)C3)[C@H](C)[C@@H](O)CC1=O)[C@H](C)C[C@@H]2OC [Tsukubamycin B]
inhibition of T-cell proliferation after addition of IL-2 ([2]; 50 units/ml of IL-2 (recombinant human IL-2) added at the initiation of culture): reversed | inhibition of T-cell activation / % inhibition of tritiated thymidine uptake (proliferation) ([2]; purified mouse spleen T lymphocytes, ionomycin 250 ng/ml plus PMA 10 ng/ml, 44 hours culture plus 4 hours pulse, various concentrations, no numbers given): indicated its immunosuppressant properties; also recorded: positive inhibition of T-cell activation
